From ChEMBL document CHEMBL3639225, “Perfluorinated cyclopropyl fused 1,3-oxazin-2-amine compounds as beta-secretase inhibitors and methods of use” (2015) come the findings set out here.

Each structure is given as a SMILES string. pIC50: −log10 of the molar value.

The pIC50 is −log10 of the IC50, conventionally taken in molar units.

In the assay the target is Cathepsin D (Homo sapiens, UniProt P07339). As to the kind of experiment: Fluorescence Resonance Energy Transfer Assay: Recombinant Cat D was expressed in CHO cells. The assay buffer for CathepsinD is 0.05 M citrate pH 3.5, 10% DMSO final, 5 mM CHAPS. The Cat D enzyme (9 nM) is pre-incubated for one hour with inhibitors, typically in about 1 uL of DMSO according to a serial dilution, is added thereto. The assays are effectively started by the addition of different FRET substrates (20 nM for Cat D) and the combination is incubated for one hour. The FRET assay is terminated with by addition of Tris buffer, which raises the pH to neutrality, and the fluorescence is determined. The FRET substrate is a peptide with commercially available fluorophore and quencher, on opposite sides of the BACE cleavage site. The Cat D substrate peptide sequence is based on sequence #1 of Table 1 from Gulnik et al. FEBS Letters v413 p379-384 1997. Proteolytic cleavage of the FRET substrate releases quenching of fluorescence (Cat D excitation 500 nm and emission 580 nm). It counts as cell-based.
Sequence of Cathepsin D (P07339 65-162 limits assumed): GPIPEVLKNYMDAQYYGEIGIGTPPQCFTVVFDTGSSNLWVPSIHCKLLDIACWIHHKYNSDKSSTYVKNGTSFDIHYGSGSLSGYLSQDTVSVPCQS
Sequence of Cathepsin D (P07339 169-412 limits assumed): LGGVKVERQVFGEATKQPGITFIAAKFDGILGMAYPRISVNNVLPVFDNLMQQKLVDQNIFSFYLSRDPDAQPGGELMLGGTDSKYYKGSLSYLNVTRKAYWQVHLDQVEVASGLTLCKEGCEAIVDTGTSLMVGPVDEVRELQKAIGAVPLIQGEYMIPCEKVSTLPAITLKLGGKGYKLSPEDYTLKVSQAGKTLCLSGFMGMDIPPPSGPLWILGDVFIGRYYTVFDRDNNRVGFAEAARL
`Cc1cc(NC(=O)c2ccc(Cl)cc2CF)cc([C@@]2(C(F)F)N=C(N)O[C@@H]3C[C@@H]32)c1F`: the pIC50 was 3.77. Consider `NC1=N[C@](CF)(c2cc(NC(=O)c3ncc(Cl)cc3CO)ccc2Cl)[C@H]2C[C@H]2O1`, for which the pIC50 was 3.27. In the case of `NC1=N[C@](CF)(c2cc(NC(=O)c3ccc(Cl)cn3)cc(F)c2F)[C@H]2C[C@H]2O1`, the pIC50 is 3.64.

As for `NC1=N[C@@](c2cc(NC(=O)c3ncc(Br)cn3)ccc2F)(C(F)F)[C@H]2C[C@H]2O1`, the pIC50 is 2.99.
